ChEMBL document CHEMBL5291721, “A preclinical secondary pharmacology resource illuminates target-adverse drug reaction associations of marketed drugs” (Nat Commun, 2023)

Experiments:
[1] = target: T1, Alpha-1A adrenergic receptor (Homo sapiens, UniProt P35348); assay type: functional, cell-based
T1 sequence (P35348 whole entry): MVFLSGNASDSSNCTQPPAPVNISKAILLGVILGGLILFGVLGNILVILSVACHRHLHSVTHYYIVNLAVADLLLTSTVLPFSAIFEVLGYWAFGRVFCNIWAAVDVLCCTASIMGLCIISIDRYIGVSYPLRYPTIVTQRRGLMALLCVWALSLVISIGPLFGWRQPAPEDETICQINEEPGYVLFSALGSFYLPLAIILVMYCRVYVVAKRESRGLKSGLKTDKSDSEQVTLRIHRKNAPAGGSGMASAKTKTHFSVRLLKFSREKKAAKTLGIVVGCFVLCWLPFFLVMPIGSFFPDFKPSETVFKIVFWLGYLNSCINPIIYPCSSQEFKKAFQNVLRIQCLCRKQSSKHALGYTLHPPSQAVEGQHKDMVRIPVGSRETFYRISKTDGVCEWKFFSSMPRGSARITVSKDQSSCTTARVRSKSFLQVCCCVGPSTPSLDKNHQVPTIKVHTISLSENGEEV

[2] = target: T2, Muscarinic acetylcholine receptor M2 (Homo sapiens, UniProt P08172); assay type: functional, cell-based
T2 sequence (P08172 whole entry): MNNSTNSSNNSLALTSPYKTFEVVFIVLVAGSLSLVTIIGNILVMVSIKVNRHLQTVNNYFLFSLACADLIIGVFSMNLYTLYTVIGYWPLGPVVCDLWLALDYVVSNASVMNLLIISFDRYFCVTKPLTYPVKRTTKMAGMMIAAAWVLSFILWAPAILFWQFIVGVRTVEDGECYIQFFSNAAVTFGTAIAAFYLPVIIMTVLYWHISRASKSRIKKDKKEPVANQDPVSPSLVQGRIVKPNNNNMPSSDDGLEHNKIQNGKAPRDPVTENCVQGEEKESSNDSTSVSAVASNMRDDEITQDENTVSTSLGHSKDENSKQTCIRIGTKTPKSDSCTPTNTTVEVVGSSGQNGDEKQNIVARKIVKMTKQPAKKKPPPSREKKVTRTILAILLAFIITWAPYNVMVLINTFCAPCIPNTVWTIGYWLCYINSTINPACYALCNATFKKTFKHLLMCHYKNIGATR

[3] = target: Gamma-aminobutyric acid receptor subunit alpha-1 (Rattus norvegicus, UniProt P62813)
[4] = target: Voltage-gated inwardly rectifying potassium channel KCNH2 (Homo sapiens, UniProt Q12809); assay type: functional; conditions: read-out: AC50
[5] = target: Kappa-type opioid receptor (Homo sapiens, UniProt P41145)
[6] = target: T3, Equilibrative nucleoside transporter 1 (Homo sapiens, UniProt Q99808)
T3 sequence (Q99808 whole entry): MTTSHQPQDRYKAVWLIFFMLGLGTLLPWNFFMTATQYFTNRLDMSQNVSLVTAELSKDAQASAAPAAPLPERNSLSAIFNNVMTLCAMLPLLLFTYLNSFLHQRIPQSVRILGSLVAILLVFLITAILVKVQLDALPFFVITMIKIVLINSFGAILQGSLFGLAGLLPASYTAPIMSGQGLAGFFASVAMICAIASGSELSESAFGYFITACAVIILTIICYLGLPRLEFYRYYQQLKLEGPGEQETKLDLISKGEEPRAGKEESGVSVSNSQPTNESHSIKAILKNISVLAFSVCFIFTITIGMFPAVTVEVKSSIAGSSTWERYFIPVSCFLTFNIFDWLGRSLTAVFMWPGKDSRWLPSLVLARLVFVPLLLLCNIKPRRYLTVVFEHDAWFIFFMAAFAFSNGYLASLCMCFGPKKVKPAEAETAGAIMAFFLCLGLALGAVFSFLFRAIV

[7] = target: T4, Sodium-dependent noradrenaline transporter (Homo sapiens, UniProt P23975)
[8] = target: T5, Amine oxidase [flavin-containing] A (Homo sapiens, UniProt P21397); assay type: functional
T5 sequence (P21397 whole entry): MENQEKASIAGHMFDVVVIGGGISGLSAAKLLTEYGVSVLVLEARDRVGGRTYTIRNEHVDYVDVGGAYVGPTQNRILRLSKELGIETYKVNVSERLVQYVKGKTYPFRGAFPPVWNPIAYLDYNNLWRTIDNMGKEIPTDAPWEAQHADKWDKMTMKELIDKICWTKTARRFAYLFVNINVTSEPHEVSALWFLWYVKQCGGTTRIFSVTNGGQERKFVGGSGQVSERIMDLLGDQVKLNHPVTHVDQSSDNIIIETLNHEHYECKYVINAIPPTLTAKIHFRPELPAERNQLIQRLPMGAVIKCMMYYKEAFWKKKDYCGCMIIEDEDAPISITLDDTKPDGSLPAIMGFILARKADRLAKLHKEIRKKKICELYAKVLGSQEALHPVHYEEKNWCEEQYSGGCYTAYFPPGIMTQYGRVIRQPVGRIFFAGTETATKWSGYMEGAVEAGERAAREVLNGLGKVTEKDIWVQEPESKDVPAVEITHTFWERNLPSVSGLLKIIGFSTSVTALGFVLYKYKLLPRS

D(1A) dopamine receptor = D(1A) dopamine receptor (Homo sapiens, UniProt P21728)
[9] = target: 5-hydroxytryptamine receptor 2B (Homo sapiens, UniProt P41595); assay type: functional, cell-based
[10] = target: T4, Sodium-dependent noradrenaline transporter; remark: listed apart in the source
[11] = target: Sodium-dependent dopamine transporter (Homo sapiens, UniProt Q01959)
[12] = target: T6, Muscarinic acetylcholine receptor M1 (Homo sapiens, UniProt P11229); assay type: functional, cell-based
T6 sequence (P11229 whole entry): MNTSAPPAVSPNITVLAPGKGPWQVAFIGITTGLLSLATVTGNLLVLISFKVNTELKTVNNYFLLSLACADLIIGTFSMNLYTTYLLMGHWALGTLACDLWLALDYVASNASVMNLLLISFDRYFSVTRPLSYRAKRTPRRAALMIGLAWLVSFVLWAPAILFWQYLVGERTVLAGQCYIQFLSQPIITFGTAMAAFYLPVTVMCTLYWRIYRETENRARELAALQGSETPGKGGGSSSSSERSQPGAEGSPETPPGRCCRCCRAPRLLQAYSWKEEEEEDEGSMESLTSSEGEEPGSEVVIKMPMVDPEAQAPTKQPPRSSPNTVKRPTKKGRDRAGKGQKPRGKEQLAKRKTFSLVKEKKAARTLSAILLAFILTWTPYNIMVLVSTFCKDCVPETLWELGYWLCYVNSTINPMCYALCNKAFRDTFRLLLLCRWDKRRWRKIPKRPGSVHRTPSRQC
Further: assay procedure not described here.

Chain of Sodium-dependent dopamine transporter (Q01959 whole entry): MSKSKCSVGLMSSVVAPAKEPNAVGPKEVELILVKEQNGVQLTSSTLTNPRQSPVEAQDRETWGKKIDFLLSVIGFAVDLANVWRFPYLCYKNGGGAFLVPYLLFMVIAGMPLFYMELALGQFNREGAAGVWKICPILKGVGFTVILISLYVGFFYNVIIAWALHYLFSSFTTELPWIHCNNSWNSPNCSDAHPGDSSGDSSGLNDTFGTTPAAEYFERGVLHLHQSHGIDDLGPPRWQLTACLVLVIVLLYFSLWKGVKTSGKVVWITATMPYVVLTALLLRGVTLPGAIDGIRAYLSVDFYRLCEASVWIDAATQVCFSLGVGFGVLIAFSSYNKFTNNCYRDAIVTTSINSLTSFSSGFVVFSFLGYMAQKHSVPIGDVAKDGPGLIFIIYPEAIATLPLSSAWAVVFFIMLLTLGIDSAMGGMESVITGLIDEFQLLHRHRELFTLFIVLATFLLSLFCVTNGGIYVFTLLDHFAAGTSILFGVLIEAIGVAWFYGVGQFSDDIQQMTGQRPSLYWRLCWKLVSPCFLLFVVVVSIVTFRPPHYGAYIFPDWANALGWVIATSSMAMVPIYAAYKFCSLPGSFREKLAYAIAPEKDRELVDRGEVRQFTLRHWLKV
Chain of 5-hydroxytryptamine receptor 2B (P41595 whole entry): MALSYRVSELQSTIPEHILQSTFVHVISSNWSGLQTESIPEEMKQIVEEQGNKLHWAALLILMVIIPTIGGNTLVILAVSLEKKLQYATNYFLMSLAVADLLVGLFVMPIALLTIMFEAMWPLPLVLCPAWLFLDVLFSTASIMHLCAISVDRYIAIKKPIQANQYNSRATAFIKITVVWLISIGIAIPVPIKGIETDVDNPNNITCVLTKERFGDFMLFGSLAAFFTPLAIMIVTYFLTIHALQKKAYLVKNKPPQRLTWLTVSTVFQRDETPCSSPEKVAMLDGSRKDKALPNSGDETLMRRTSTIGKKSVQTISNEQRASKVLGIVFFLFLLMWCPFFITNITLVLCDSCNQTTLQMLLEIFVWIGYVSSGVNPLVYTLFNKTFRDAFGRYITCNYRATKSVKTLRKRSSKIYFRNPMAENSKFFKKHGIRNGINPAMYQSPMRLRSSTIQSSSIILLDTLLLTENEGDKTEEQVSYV
Chain of Voltage-gated inwardly rectifying potassium channel KCNH2 (Q12809 whole entry): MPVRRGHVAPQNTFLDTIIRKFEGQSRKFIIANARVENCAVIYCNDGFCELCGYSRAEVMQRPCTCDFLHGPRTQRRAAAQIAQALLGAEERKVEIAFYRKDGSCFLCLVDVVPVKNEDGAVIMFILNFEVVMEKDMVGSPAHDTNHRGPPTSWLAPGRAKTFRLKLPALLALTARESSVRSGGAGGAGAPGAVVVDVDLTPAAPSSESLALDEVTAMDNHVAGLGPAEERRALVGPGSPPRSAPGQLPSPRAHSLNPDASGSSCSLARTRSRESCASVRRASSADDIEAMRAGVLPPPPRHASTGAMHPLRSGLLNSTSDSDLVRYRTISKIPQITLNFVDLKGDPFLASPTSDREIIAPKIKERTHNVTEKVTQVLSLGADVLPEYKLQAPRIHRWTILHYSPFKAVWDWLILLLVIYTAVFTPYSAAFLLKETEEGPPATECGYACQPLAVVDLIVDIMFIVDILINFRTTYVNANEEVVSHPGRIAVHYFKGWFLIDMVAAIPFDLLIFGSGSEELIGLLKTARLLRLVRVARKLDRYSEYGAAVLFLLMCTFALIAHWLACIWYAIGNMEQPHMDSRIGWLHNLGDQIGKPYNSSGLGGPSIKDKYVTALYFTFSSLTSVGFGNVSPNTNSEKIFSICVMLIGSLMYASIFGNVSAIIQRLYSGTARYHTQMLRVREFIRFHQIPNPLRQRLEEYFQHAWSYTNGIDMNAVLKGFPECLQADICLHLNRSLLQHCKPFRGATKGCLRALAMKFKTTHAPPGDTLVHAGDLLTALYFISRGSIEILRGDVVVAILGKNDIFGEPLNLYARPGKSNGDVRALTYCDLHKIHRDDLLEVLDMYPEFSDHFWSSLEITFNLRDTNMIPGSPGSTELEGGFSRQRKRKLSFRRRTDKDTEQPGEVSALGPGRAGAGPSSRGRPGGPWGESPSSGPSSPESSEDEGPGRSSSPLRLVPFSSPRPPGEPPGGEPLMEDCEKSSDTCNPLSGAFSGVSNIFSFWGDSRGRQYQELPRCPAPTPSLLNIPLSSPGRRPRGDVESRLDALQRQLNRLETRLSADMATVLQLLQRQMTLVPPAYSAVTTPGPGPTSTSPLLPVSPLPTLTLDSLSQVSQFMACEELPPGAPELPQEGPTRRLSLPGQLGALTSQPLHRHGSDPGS
T4 sequence (P23975 whole entry): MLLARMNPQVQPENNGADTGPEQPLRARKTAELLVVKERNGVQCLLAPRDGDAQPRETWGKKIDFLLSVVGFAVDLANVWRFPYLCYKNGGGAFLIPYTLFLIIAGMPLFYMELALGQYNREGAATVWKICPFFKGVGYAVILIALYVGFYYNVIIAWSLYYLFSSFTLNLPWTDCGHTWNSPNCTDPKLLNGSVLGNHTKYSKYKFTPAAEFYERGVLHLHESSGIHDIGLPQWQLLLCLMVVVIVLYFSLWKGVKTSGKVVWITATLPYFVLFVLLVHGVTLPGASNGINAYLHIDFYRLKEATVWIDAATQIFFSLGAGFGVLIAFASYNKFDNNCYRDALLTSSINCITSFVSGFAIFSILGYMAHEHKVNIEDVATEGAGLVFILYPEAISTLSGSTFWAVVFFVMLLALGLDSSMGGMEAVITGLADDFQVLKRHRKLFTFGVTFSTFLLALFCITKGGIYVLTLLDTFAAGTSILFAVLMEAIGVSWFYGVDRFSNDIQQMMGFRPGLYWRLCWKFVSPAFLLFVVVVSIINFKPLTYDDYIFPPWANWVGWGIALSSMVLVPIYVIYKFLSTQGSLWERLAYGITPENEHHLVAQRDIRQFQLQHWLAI
Chain of Gamma-aminobutyric acid receptor subunit alpha-1 (P62813 whole entry): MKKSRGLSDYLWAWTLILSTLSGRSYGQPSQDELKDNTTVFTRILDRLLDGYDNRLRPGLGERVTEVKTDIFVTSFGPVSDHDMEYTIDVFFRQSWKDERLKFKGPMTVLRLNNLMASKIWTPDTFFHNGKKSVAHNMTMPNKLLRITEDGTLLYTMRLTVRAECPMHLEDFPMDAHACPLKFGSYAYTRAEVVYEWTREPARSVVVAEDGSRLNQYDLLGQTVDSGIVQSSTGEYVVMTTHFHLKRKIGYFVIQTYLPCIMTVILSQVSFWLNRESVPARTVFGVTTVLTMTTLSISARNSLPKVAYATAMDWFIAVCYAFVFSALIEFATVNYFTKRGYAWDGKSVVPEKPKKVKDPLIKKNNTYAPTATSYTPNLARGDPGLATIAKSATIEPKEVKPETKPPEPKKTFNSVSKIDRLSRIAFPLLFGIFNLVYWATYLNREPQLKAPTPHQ
Chain of Kappa-type opioid receptor (P41145 whole entry): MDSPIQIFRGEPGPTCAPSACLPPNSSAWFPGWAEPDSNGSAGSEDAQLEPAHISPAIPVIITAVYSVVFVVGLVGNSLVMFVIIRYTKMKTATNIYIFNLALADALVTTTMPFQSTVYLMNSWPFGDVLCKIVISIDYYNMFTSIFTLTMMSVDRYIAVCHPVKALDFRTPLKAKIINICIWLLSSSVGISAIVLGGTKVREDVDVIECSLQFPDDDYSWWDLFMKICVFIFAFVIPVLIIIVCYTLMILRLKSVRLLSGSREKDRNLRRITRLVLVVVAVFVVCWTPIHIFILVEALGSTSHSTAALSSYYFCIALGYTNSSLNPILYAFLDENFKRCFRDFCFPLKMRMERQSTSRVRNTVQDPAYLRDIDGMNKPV
Chain of D(1A) dopamine receptor (P21728 whole entry): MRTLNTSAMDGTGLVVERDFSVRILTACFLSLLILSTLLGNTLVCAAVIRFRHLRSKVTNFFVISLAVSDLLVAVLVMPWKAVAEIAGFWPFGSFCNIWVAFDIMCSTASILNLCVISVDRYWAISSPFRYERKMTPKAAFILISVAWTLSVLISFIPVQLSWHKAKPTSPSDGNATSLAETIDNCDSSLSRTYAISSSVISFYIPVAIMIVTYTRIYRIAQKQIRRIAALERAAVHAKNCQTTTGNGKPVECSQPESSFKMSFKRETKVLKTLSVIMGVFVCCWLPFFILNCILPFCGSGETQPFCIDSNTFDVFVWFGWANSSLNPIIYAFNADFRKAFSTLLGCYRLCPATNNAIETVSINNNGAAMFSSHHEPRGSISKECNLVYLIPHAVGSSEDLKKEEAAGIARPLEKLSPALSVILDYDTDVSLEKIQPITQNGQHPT

COc1ccc(Cc2nccc3cc(OC)c(OC)cc23)cc1OC [PAPAVERINE]
AC50 [1]: > 30 µM
AC50 [2]: > 30 µM
AC50 [3]: > 30 µM
AC50 [4]: 5.6 µM
AC50 [5]: > 30 µM
AC50 [6]: 10 µM
AC50 [7]: > 30 µM
AC50 [8]: > 30 µM

CNC(=O)c1cc(Oc2ccc(NC(=O)Nc3ccc(Cl)c(C(F)(F)F)c3)c(F)c2)ccn1 [REGORAFENIB]
AC50 [1]: > 30 µM
AC50 [2]: > 30 µM
AC50 (D(1A) dopamine receptor): 5.61 µM
AC50 [9]: > 30 µM
AC50 [4]: > 10 µM
AC50 [10]: 20 µM
AC50 [11]: 1.04 µM
AC50 [7]: 21.9 µM
AC50 [8]: 9.05 µM

NC(=O)c1ncn([C@@H]2O[C@H](CO)[C@@H](O)[C@H]2O)n1 [RIBAVIRIN]
AC50 [1]: > 30 µM
AC50 [2]: > 10 µM
AC50 [3]: > 10 µM
AC50 [4]: > 30 µM
AC50 [5]: > 10 µM
AC50 [6]: > 30 µM
AC50 [7]: > 10 µM
AC50 [8]: > 10 µM

CC(C)N(CCCCOCC(=O)NS(C)(=O)=O)c1cnc(-c2ccccc2)c(-c2ccccc2)n1 [SELEXIPAG]
AC50 [1]: > 30 µM
AC50 [2]: > 30 µM
AC50 [3]: > 30 µM
AC50 [4]: > 30 µM
AC50 [5]: 29 µM
AC50 [6]: > 30 µM
AC50 [7]: > 30 µM
AC50 [8]: > 30 µM

CC(=O)S[C@@H]1CC2=CC(=O)CC[C@]2(C)[C@H]2CC[C@@]3(C)[C@@H](CC[C@@]34CCC(=O)O4)[C@H]12 [SPIRONOLACTONE]
AC50 [1]: > 30 µM
AC50 [2]: > 30 µM
AC50 [3]: > 10 µM
AC50 [4]: > 30 µM
AC50 [5]: 14.8 µM
AC50 [6]: > 30 µM
AC50 [7]: > 30 µM
AC50 [8]: > 30 µM

CCCCCCCCNC(C)C(O)c1ccc(SC(C)C)cc1 (stereo not drawn) [SULOCTIDIL]
AC50 (D(1A) dopamine receptor): 11.3 µM
AC50 [9]: > 30 µM
AC50 [4]: 0.43 µM
AC50 [10]: 1.39 µM
AC50 [11]: 2.21 µM

CCCCNc1ccc(C(=O)OCCN(C)C)cc1 [TETRACAINE]
AC50 [1]: > 30 µM
AC50 [2]: > 10 µM
AC50 (D(1A) dopamine receptor): > 30 µM
AC50 [3]: > 10 µM
AC50 [9]: > 30 µM
AC50 [4]: 25.9 µM
AC50 [5]: > 10 µM
AC50 [6]: > 30 µM
AC50 [10]: > 30 µM
AC50 [11]: 21.9 µM
AC50 [7]: > 10 µM
AC50 [8]: 0.97 µM

Cn1c(=O)c2[nH]cnc2n(C)c1=O [THEOPHYLLINE]
AC50 [1]: > 30 µM
AC50 [2]: > 10 µM
AC50 (D(1A) dopamine receptor): > 30 µM
AC50 [3]: > 10 µM
AC50 [9]: > 30 µM
AC50 [4]: > 30 µM
AC50 [5]: > 10 µM
AC50 [6]: > 30 µM
AC50 [10]: > 30 µM
AC50 [11]: > 30 µM
AC50 [7]: > 30 µM
AC50 [8]: > 10 µM

CN1CCN(CCCN2c3ccccc3Sc3ccc(S(=O)(=O)N(C)C)cc32)CC1 [THIOPROPERAZINE]
AC50 [1]: > 30 µM
AC50 [2]: > 30 µM
AC50 (D(1A) dopamine receptor): 0.13 µM
AC50 [3]: > 30 µM
AC50 [9]: > 30 µM
AC50 [4]: 0.4 µM
AC50 [5]: > 30 µM
AC50 [10]: 16.8 µM
AC50 [11]: 13.3 µM
AC50 [8]: > 30 µM

NCCc1ccc(O)cc1 [TYRAMINE]
AC50 [12]: > 30 µM
AC50 [9]: > 30 µM
AC50 [4]: > 30 µM
AC50 [10]: 22.2 µM
AC50 [11]: > 30 µM

Cc1cc(CC(=O)O)n(C)c1C(=O)c1ccc(Cl)cc1 [ZOMEPIRAC]
AC50 [1]: > 30 µM
AC50 [2]: > 30 µM
AC50 [3]: > 30 µM
AC50 [4]: > 30 µM
AC50 [5]: > 30 µM
AC50 [6]: > 30 µM
AC50 [7]: > 30 µM
AC50 [8]: > 30 µM
